Measurements reported in the NIST ThermoML archive (doi:10.1016/j.tca.2015.02.020).

Assay: molar heat capacity at constant pressure; xn = mol fraction of the nth substance listed
Conditions: 101 kPa, Small sample (50 mg) DSC

CC(O)CN (stereo unspecified) [1-amino-2-propanol] + O
Conditions	molar heat capacity at constant pressure [J/K/mol]
126.79 K, Glass, x1 = 0.15	27.11
126.79 K, Glass, x1 = 0.16	28.24
126.94 K, Glass, x1 = 0.19	28.86
127.55 K, Glass, x1 = 0.19	28.57
127.56 K, Glass, x1 = 0.26	32.53
127.57 K, Glass, x1 = 0.26	32.86
127.69 K, Glass, x1 = 0.15	27.64
127.71 K, Glass, x1 = 0.16	27.96
127.73 K, Glass, x1 = 0.68	51.16
127.76 K, Glass, x1 = 0.68	51.16
130.83 K, Glass, x1 = 0.19	29.15
130.83 K, Glass, x1 = 0.26	33.19
130.96 K, Glass, x1 = 0.15	28.71
130.98 K, Glass, x1 = 0.16	28.51
131 K, Glass, x1 = 0.68	52.86
131.45 K, Glass, x1 = 0.15	28.71
131.45 K, Glass, x1 = 0.16	30.14
131.61 K, Glass, x1 = 0.19	30.31
132.23 K, Glass, x1 = 0.26	34.17
132.42 K, Glass, x1 = 0.68	52.29
134.1 K, Glass, x1 = 0.19	29.73
134.1 K, Glass, x1 = 0.26	33.85
134.24 K, Glass, x1 = 0.15	29.5
134.25 K, Glass, x1 = 0.16	29.05
134.27 K, Glass, x1 = 0.68	54
136.13 K, Glass, x1 = 0.15	30.3
136.13 K, Glass, x1 = 0.16	31.77
136.28 K, Glass, x1 = 0.19	32.04
136.9 K, Glass, x1 = 0.26	35.49
137.09 K, Glass, x1 = 0.68	54.57
140.66 K, Glass, x1 = 0.19	31.17
140.66 K, Glass, x1 = 0.26	35.49
140.8 K, Glass, x1 = 0.15	30.83
140.8 K, Glass, x1 = 0.16	33.39
140.81 K, Glass, x1 = 0.15	31.63
140.81 K, Glass, x1 = 0.16	30.41
140.83 K, Glass, x1 = 0.68	56.27
140.96 K, Glass, x1 = 0.19	32.9
141.59 K, Glass, x1 = 0.26	36.8
141.77 K, Glass, x1 = 0.68	55.7
143.95 K, Glass, x1 = 0.19	31.75
143.95 K, Glass, x1 = 0.26	36.15
144.09 K, Glass, x1 = 0.15	31.63
144.1 K, Glass, x1 = 0.16	30.95
144.11 K, Glass, x1 = 0.68	57.41
145.5 K, Glass, x1 = 0.16	34.75
145.65 K, Glass, x1 = 0.19	34.35
146.28 K, Glass, x1 = 0.26	38.12
146.29 K, Glass, x1 = 0.15	33.22
146.45 K, Glass, x1 = 0.68	56.84
150.19 K, Glass, x1 = 0.16	36.11
150.34 K, Glass, x1 = 0.19	35.5
150.53 K, Glass, x1 = 0.19	33.48
150.53 K, Glass, x1 = 0.26	38.12
150.67 K, Glass, x1 = 0.15	33.22
150.68 K, Glass, x1 = 0.16	32.31
150.69 K, Glass, x1 = 0.68	59.68
150.97 K, Glass, x1 = 0.26	39.1
150.99 K, Glass, x1 = 0.15	34.29
151.15 K, Glass, x1 = 0.68	57.98
153.82 K, Glass, x1 = 0.19	34.06
153.82 K, Glass, x1 = 0.26	39.1
153.96 K, Glass, x1 = 0.15	34.02
153.98 K, Glass, x1 = 0.16	33.12
153.98 K, Glass, x1 = 0.68	60.82
155.68 K, Glass, x1 = 0.15	35.88
155.68 K, Glass, x1 = 0.16	37.74
155.68 K, Glass, x1 = 0.19	36.94
155.68 K, Glass, x1 = 0.26	40.42
155.84 K, Glass, x1 = 0.68	59.11
160.38 K, Glass, x1 = 0.16	40.45
160.38 K, Glass, x1 = 0.19	38.97
160.38 K, Glass, x1 = 0.26	42.39
160.4 K, Glass, x1 = 0.15	39.07
160.41 K, Glass, x1 = 0.19	35.79
160.41 K, Glass, x1 = 0.26	41.07
160.54 K, Glass, x1 = 0.68	60.82
160.55 K, Glass, x1 = 0.15	35.88
160.56 K, Glass, x1 = 0.16	34.48
160.57 K, Glass, x1 = 0.68	63.09
163.7 K, Glass, x1 = 0.19	36.66
163.7 K, Glass, x1 = 0.26	42.39
163.84 K, Glass, x1 = 0.15	37.74
163.85 K, Glass, x1 = 0.16	35.57
163.85 K, Glass, x1 = 0.68	64.8
165.08 K, Glass, x1 = 0.19	42.72
165.08 K, Glass, x1 = 0.26	45.68
165.25 K, Glass, x1 = 0.68	64.8
170.29 K, Glass, x1 = 0.19	40.7
170.3 K, Glass, x1 = 0.26	46
170.45 K, Glass, x1 = 0.68	68.21
173.75 K, Glass, x1 = 0.68	73.89
183.93 K, Liquid, x1 = 0.26	85.44
184.09 K, Liquid, x1 = 0.68	124.48
188.66 K, Liquid, x1 = 0.26	85.11
188.82 K, Liquid, x1 = 0.68	125.62
190.11 K, Liquid, x1 = 0.19	83.13
190.11 K, Liquid, x1 = 0.26	88.06
190.26 K, Liquid, x1 = 0.15	76.81
190.26 K, Liquid, x1 = 0.68	135.28
190.27 K, Liquid, x1 = 0.16	77.92
193.38 K, Liquid, x1 = 0.26	84.78
193.42 K, Liquid, x1 = 0.19	81.97
193.42 K, Liquid, x1 = 0.26	87.74
193.54 K, Liquid, x1 = 0.68	126.75
193.57 K, Liquid, x1 = 0.15	76.28
193.58 K, Liquid, x1 = 0.16	77.11
193.58 K, Liquid, x1 = 0.68	135.28
198.11 K, Liquid, x1 = 0.16	79.01
198.11 K, Liquid, x1 = 0.26	84.78
198.13 K, Liquid, x1 = 0.15	73.89
198.27 K, Liquid, x1 = 0.68	126.75
200.05 K, Liquid, x1 = 0.19	80.53
200.05 K, Liquid, x1 = 0.26	87.74
200.19 K, Liquid, x1 = 0.15	76.02
200.19 K, Liquid, x1 = 0.68	136.41
200.2 K, Liquid, x1 = 0.16	76.29
202.84 K, Liquid, x1 = 0.19	80.53
202.84 K, Liquid, x1 = 0.26	85.44
202.85 K, Liquid, x1 = 0.16	79.28
202.87 K, Liquid, x1 = 0.15	74.69
203 K, Liquid, x1 = 0.68	126.75
203.35 K, Liquid, x1 = 0.19	80.24
203.36 K, Liquid, x1 = 0.26	88.06
203.5 K, Liquid, x1 = 0.15	75.75
203.5 K, Liquid, x1 = 0.68	136.98
203.51 K, Liquid, x1 = 0.16	76.29
207.57 K, Liquid, x1 = 0.19	80.82
207.57 K, Liquid, x1 = 0.26	86.42
207.58 K, Liquid, x1 = 0.16	79.82
207.6 K, Liquid, x1 = 0.15	75.49
